Test results: ChEMBL document CHEMBL1145498, “A systematic interaction map of validated kinase inhibitors with Ser/Thr kinases” (Proc Natl Acad Sci U S A, 2007)

Tests used:
[1] = target: 5'-AMP-activated protein kinase catalytic subunit alpha-2 (Homo sapiens) (UniProt P54646)
[2] = target: Calcium/calmodulin-dependent protein kinase type II subunit alpha (Homo sapiens) (UniProt Q9UQM7)
[3] = target: Calcium/calmodulin-dependent protein kinase type II subunit beta (Homo sapiens) (UniProt Q13554)
[4] = target: Calcium/calmodulin-dependent protein kinase type II subunit delta (Homo sapiens) (UniProt Q13557)
Calcium/calmodulin-dependent protein kinase type II subunit delta (Homo sapiens), sequence (Q13557 whole entry): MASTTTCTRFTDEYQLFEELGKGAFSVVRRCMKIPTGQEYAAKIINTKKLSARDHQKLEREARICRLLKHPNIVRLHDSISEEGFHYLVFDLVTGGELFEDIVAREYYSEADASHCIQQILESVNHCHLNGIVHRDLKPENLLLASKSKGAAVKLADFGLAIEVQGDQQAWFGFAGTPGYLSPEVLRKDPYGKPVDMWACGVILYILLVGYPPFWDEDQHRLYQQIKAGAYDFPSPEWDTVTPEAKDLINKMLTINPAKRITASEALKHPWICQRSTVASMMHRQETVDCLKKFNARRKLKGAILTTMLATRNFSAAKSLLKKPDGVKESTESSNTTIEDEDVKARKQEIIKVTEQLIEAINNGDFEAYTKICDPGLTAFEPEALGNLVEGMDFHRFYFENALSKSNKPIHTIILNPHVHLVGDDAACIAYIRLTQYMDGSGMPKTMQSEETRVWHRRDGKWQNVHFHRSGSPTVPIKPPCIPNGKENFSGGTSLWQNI

[5] = target: Calcium/calmodulin-dependent protein kinase type II subunit gamma (Homo sapiens) (UniProt Q13555)
[6] = target: Cyclin-dependent kinase 2 (Homo sapiens, UniProt P24941)
[7] = target: Cyclin-dependent kinase 6 (Homo sapiens) (UniProt Q00534)
[8] = target: Cyclin-dependent kinase-like 1 (Homo sapiens) (UniProt Q00532)
[9] = target: Serine/threonine-protein kinase Chk2 (Homo sapiens, UniProt O96017)
[10] = target: Dual specificity protein kinase CLK1 (Homo sapiens) (UniProt P49759)
Dual specificity protein kinase CLK1 (Homo sapiens), sequence (P49759 whole entry, looked up, canonical isoform): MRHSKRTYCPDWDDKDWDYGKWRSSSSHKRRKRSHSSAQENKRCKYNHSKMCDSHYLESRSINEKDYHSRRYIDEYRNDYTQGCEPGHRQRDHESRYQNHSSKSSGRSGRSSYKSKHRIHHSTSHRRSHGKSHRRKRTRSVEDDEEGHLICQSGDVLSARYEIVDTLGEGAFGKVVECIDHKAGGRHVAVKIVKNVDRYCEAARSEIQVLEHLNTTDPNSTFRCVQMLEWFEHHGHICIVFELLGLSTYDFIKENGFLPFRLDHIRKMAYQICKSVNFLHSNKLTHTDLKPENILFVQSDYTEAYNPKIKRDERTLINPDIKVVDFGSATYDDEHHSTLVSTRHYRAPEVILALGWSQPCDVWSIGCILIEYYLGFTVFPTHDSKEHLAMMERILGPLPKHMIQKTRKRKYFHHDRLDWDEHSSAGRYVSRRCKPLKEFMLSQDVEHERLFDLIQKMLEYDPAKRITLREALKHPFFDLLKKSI

[11] = target: Casein kinase I isoform gamma-2 (Homo sapiens) (UniProt P78368)
Casein kinase I isoform gamma-2 (Homo sapiens), sequence (P78368 whole entry, looked up, canonical isoform): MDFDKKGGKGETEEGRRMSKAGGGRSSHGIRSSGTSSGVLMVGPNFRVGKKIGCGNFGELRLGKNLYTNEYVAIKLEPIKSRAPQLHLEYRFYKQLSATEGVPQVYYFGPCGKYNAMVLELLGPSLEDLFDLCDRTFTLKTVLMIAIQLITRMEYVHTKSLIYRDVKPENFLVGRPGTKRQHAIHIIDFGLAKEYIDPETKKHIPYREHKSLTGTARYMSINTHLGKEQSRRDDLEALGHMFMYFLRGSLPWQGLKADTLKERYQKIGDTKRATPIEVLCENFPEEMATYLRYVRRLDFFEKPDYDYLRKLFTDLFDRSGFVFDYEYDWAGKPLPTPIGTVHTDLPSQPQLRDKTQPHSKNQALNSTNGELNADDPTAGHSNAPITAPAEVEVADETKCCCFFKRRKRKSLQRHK

[12] = target: Casein kinase I isoform gamma-3 (Homo sapiens) (UniProt Q9Y6M4)
Casein kinase I isoform gamma-3 (Homo sapiens), sequence (Q9Y6M4 whole entry, looked up, canonical isoform): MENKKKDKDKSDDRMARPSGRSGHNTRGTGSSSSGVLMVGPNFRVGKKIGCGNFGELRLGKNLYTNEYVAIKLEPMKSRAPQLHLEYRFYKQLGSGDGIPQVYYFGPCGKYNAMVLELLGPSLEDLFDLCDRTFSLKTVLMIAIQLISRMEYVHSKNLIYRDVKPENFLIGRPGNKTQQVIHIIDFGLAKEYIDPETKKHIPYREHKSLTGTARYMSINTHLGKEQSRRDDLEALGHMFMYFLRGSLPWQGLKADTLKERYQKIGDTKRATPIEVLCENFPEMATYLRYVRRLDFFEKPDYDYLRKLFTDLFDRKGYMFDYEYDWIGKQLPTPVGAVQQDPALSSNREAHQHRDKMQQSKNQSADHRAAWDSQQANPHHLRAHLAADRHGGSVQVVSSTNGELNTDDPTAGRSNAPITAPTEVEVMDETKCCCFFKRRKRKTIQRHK

[13] = target: Death-associated protein kinase 3 (Homo sapiens) (UniProt O43293)
[14] = target: Tyrosine-protein kinase JAK1 (Homo sapiens) (UniProt P23458)
Tyrosine-protein kinase JAK1 (Homo sapiens), sequence (P23458 whole entry): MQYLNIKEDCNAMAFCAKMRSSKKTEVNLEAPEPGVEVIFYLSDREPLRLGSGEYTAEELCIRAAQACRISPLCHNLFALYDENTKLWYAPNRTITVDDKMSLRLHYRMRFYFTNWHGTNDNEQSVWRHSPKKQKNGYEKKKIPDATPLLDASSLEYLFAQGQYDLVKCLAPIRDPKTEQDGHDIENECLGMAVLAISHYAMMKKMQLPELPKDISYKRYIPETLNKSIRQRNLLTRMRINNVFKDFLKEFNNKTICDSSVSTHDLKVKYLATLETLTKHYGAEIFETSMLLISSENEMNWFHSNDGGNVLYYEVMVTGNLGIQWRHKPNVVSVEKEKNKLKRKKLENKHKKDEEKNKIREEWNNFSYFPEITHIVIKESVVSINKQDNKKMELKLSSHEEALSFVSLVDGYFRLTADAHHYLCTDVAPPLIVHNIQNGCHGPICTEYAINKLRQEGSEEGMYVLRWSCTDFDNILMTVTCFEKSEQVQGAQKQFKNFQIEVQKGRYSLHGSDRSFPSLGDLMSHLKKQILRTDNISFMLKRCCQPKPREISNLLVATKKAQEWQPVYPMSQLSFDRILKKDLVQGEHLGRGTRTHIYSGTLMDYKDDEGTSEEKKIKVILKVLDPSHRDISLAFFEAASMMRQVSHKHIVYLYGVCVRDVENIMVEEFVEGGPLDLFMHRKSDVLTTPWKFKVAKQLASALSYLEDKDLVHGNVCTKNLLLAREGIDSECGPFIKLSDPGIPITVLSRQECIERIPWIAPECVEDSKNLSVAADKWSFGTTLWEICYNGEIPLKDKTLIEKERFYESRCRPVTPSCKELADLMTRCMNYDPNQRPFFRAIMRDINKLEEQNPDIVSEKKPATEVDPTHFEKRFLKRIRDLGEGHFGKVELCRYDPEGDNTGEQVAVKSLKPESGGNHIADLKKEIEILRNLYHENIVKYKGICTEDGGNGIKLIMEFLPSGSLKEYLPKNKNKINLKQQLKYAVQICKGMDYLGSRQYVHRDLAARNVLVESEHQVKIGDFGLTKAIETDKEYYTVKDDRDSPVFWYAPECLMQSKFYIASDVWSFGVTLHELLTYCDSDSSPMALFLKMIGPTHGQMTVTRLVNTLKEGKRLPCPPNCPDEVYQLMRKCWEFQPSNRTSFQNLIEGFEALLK

[15] = target: Dual specificity mitogen-activated protein kinase kinase 2 (Homo sapiens, UniProt P36507)
[16] = target: T1, Dual specificity mitogen-activated protein kinase kinase 6 (Homo sapiens) (UniProt P52564)
T1 sequence (whole entry): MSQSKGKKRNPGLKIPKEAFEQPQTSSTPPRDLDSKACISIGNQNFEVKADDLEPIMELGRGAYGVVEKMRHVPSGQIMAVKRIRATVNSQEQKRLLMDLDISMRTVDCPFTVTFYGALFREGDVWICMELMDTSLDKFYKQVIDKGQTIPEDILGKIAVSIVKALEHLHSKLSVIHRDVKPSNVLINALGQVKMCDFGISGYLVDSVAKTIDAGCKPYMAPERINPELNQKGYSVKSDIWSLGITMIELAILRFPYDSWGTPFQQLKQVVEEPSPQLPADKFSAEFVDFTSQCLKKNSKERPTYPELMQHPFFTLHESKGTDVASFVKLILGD

[17] = target: Mitogen-activated protein kinase 3 (Homo sapiens, UniProt P27361)
[18] = target: Serine/threonine-protein kinase 26 (Homo sapiens) (UniProt Q9P289)
[19] = target: Serine/threonine-protein kinase OSR1 (Homo sapiens) (UniProt O95747)
[20] = target: Serine/threonine-protein kinase PAK 5 (Homo sapiens) (UniProt Q9P286)
[21] = target: Cyclin-dependent kinase 16 (Homo sapiens) (UniProt Q00536)
Cyclin-dependent kinase 16 (Homo sapiens), sequence (Q00536 whole entry): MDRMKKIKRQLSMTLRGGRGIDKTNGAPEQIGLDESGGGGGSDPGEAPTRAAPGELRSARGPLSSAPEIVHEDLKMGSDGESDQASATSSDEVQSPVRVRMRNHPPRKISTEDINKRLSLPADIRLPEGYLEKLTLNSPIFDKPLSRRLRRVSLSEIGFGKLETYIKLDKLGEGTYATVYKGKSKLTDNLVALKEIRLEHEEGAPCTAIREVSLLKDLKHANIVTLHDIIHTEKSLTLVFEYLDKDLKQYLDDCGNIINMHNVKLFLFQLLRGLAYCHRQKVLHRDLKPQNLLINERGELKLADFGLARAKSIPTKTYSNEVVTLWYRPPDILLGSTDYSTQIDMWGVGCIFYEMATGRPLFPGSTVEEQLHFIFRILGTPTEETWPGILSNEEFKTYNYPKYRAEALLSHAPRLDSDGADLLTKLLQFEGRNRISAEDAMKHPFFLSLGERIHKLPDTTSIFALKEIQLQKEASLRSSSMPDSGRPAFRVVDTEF

[22] = target: Serine/threonine-protein kinase pim-3 (Homo sapiens) (UniProt Q86V86)
[23] = target: Serine/threonine-protein kinase PLK1 (Homo sapiens) (UniProt P53350)
[24] = target: Serine/threonine-protein kinase RIO2 (Homo sapiens) (UniProt Q9BVS4)
Serine/threonine-protein kinase RIO2 (Homo sapiens), sequence (Q9BVS4 whole entry, looked up): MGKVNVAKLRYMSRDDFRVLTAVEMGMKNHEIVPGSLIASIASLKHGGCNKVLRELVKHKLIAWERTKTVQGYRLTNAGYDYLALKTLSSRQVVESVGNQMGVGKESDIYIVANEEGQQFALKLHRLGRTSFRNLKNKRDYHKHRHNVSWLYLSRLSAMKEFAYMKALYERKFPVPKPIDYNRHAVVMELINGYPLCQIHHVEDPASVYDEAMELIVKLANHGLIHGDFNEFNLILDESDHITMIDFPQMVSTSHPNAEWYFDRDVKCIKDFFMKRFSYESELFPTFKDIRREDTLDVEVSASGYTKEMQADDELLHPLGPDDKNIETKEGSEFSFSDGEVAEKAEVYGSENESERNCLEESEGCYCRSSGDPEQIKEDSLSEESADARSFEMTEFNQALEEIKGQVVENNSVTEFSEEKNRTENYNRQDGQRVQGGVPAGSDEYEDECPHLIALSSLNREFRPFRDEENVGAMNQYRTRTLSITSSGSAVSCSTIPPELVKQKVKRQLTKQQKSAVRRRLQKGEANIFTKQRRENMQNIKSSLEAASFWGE

[25] = target: Ribosomal protein S6 kinase alpha-3 (Homo sapiens) (UniProt P51812)
[26] = target: STE20-like serine/threonine-protein kinase (Homo sapiens) (UniProt Q9H2G2)
[27] = target: Serine/threonine-protein kinase 38 (Homo sapiens) (UniProt Q15208)
[28] = target: T2, Serine/threonine-protein kinase VRK1 (Homo sapiens) (UniProt Q99986)
T2 sequence (whole entry): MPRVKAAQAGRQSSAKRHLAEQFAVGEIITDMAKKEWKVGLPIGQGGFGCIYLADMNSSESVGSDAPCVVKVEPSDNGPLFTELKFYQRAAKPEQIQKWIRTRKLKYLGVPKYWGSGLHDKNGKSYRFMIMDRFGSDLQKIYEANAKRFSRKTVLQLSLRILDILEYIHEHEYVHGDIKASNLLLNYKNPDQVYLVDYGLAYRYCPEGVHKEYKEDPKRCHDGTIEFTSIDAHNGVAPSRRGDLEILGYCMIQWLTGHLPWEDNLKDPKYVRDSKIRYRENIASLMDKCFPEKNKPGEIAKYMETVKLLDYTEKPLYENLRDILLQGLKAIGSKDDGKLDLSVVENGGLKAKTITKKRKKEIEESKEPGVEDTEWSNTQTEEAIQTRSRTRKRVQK

[29] = target: T3, Serine/threonine-protein kinase VRK3 (Homo sapiens) (UniProt Q8IV63)
T3 sequence (whole entry): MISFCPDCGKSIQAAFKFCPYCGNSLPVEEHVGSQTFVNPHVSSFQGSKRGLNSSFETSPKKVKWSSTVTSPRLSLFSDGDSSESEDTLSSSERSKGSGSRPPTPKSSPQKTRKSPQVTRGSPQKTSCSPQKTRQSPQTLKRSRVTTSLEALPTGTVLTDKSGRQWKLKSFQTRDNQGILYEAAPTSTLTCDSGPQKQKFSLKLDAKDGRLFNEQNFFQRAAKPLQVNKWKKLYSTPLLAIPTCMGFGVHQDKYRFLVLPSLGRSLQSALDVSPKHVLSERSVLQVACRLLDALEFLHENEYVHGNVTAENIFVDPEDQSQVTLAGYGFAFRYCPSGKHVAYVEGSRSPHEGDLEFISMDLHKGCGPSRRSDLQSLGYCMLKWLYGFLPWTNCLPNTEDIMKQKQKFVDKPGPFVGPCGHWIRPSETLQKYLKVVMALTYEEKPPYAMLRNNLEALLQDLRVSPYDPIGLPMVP

5'-AMP-activated protein kinase catalytic subunit alpha-2 (Homo sapiens), sequence (P54646 whole entry, looked up): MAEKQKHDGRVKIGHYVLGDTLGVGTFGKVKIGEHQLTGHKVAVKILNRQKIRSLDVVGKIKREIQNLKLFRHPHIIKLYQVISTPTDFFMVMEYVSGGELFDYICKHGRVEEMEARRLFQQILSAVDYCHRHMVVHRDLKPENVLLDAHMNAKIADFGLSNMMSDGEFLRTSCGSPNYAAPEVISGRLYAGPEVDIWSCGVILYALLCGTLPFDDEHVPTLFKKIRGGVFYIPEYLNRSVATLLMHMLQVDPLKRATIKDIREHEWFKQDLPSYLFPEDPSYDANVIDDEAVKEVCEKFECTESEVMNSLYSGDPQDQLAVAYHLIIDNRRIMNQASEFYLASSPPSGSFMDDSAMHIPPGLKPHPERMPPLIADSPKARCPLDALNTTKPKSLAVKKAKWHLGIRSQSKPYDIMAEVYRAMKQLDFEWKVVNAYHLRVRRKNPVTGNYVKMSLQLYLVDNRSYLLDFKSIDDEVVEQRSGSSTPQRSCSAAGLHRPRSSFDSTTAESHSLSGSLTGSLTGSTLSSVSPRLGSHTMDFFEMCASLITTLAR

Row | ΔTm [1] [°C] | ΔTm [2] [°C] | ΔTm [3] [°C] | ΔTm [4] [°C] | ΔTm [5] [°C] | ΔTm [6] [°C] | ΔTm [7] [°C] | ΔTm [8] [°C] | ΔTm [9] [°C] | ΔTm [10] [°C] | ΔTm [11] [°C] | ΔTm [12] [°C] | ΔTm [14] [°C] | ΔTm [15] [°C] | ΔTm [16] [°C] | ΔTm [17] [°C] | ΔTm [18] [°C] | ΔTm [19] [°C] | ΔTm [20] [°C] | Compound | ΔTm [13] [°C] | further results
1 | -0.4 | 0.5 | 0.3 | 0.5 | 0.3 | 0.8 | 0.9 | 0.3 | -0.1 | 2 | 0.3 | 0.1 | 0 | -0.3 | 0 | 0.4 | 0 | -0.5 | 0.1 | O=S(=O)(c1cccc2c(Cl)cccc12)N1CCCNCC1 | 2.5 | ΔTm [21]: -0.4 °C; ΔTm [22]: 3.5 °C; ΔTm [23]: 0 °C; ΔTm [24]: 0.3 °C; ΔTm [25]: -0.2 °C; ΔTm [26]: -0.1 °C; ΔTm [27]: 0.3 °C; ΔTm [28]: 0.3 °C; ΔTm [29]: 0.1 °C
2 | 2.6 | 2.4 | 0.9 | 1.1 | 2.9 | 1.7 | 0.4 | 0.7 | 7.1 | 6.3 | 0.5 | 0.3 | 1.5 | 0.1 | 1.1 | 0.6 | 3.1 | 2.4 | 1 | CN(C)CCCn1cc(C2=C(c3c[nH]c4ccccc34)C(=O)NC2=O)c2ccccc21 [GF-109203] | 2.8 | ΔTm [21]: 3 °C; ΔTm [22]: 9.1 °C; ΔTm [23]: 1 °C; ΔTm [24]: 0.3 °C; ΔTm [25]: 0.8 °C; ΔTm [26]: 6.8 °C; ΔTm [27]: 0.3 °C; ΔTm [28]: 0.2 °C; ΔTm [29]: 0 °C
3 | 6.7 | 3 | 2.3 | 3.2 | 1.2 | 2.3 | -0.9 | 0 | 4.7 | 4.3 | 0.1 | 0.6 | 3.6 | 7 | 0.3 | 0.8 | 6.3 | 2.2 | 0.4 | CN(C)S(=O)(=O)c1ccc2c(c1)/C(=C/c1cc3c([nH]1)CCCC3)C(=O)N2 | 0.3 | ΔTm [21]: 0.1 °C; ΔTm [22]: 1.7 °C; ΔTm [23]: 0.1 °C; ΔTm [24]: -6.4 °C; ΔTm [25]: -0.1 °C; ΔTm [26]: 6.2 °C; ΔTm [27]: 2.2 °C; ΔTm [28]: 0.3 °C; ΔTm [29]: 1.5 °C
4 | 0.6 | 3.4 | -1.5 | -1.5 | -0.4 | -1.1 | 1.6 | -0.5 | 5.6 | -1.1 | 0.1 | 0.1 | -2.9 | -2.4 | -11 | 1 | -1.4 | -1.4 | -1.3 | O=C1C(Cl)=C(N2C(=O)CCC2=O)C(=O)c2ccccc21 | -7.6 | ΔTm [21]: 0.4 °C; ΔTm [22]: -1.7 °C; ΔTm [23]: -0.2 °C; ΔTm [24]: -1.5 °C; ΔTm [25]: -2.4 °C; ΔTm [26]: -0.6 °C; ΔTm [27]: -1.4 °C; ΔTm [28]: -0.6 °C; ΔTm [29]: -0.7 °C

Row | Compound | ΔTm [1] [°C] | ΔTm [2] [°C] | ΔTm [3] [°C] | ΔTm [4] [°C] | ΔTm [5] [°C] | ΔTm [6] [°C] | ΔTm [7] [°C] | ΔTm [8] [°C] | ΔTm [9] [°C] | ΔTm [10] [°C] | ΔTm [11] [°C] | ΔTm [12] [°C] | ΔTm [14] [°C] | ΔTm [15] [°C] | ΔTm [16] [°C] | ΔTm [17] [°C] | ΔTm [18] [°C] | ΔTm [19] [°C] | ΔTm [20] [°C] | ΔTm [13] [°C] | further results
5 | CSc1nc(-c2ccc(F)cc2)c(-c2ccnc(NC(C)c3ccccc3)c2)[nH]1 (racemic) | -0.4 | 0.6 | 0 | 0.9 | -0.3 | -0.5 | 0 | 0.8 | 0.7 | 0 | 3.4 | 3.4 | 0.9 | 0.1 | 0.5 | 0 | 0.7 | 0.3 | 0 | 2.4 | ΔTm [21]: 0.4 °C; ΔTm [22]: -0.5 °C; ΔTm [23]: 0.9 °C; ΔTm [24]: 0 °C; ΔTm [25]: 0.2 °C; ΔTm [26]: 0.8 °C; ΔTm [27]: 0.3 °C; ΔTm [28]: 0.9 °C; ΔTm [29]: -0.3 °C
6 | C[S+]([O-])c1ccc(CSc2nc(-c3ccc(F)cc3)c(-c3ccncc3)[nH]2)cc1 (stereo not drawn) | -0.3 | -0.1 | 0 | 0 | -0.1 | 0.5 | 0.2 | 0.2 | -0.4 | -0.5 | 0.9 | -0.1 | 0.2 | -0.4 | 0.1 | 0.3 | 0.4 | 0.1 | 0.4 | 0.4 | ΔTm [21]: -0.7 °C; ΔTm [22]: -0.4 °C; ΔTm [23]: -0.2 °C; ΔTm [24]: 0.2 °C; ΔTm [25]: 0.1 °C; ΔTm [26]: 1.1 °C; ΔTm [27]: 0.4 °C; ΔTm [28]: -0.1 °C; ΔTm [29]: -0.8 °C
7 | O=C1c2ccccc2-[n+]2ccc3c([nH]c4ccccc43)c21 [FASCAPLYSIN CHLORIDE] | 0 | -0.5 | -2 | -2.9 | -1.8 | 0 | 0.2 | -0.5 | 4.9 | -1.9 | -0.3 | -0.8 | -1.5 | -0.8 | -0.8 | 0.3 | -0.8 | -1.5 | 0.3 | -0.5 | ΔTm [21]: -0.6 °C; ΔTm [22]: 0 °C; ΔTm [23]: 0.8 °C; ΔTm [24]: -0.9 °C; ΔTm [25]: 0.7 °C; ΔTm [26]: -0.9 °C; ΔTm [27]: -0.5 °C; ΔTm [28]: -1.2 °C; ΔTm [29]: -0.4 °C
